Data published in patent publication US10421718B2, “EBNA1 inhibitors and their method of use” (priority 2013, dated 2019).

Molecular target: T1, His-EBNA1 (DNA binding domain of EBNA1, amino acids 459-607) (Epstein-Barr virus, UniProt P03211)
T1 construct: made in house; host or cells: E. coli
Assay: Inhibition of 5′-biotin-oPL4624 binding to His-EBNA1 using Alpha Screen technology
Settings: Alpha Screen Activity (IC50, inhibition of 5′-biotin-oPL4624 binding to His-EBNA1), 15 nM His-EBNA1, 0.2 nM bt-oPL4624, 2 hr room temperature
Method in brief: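 AlphaScreen signal (680 nm ex, 570 nm em) after a 2-h room-temperature incubation, normalized to no-EBNA1 (100% inhibition) and EBNA1 (0%) values and fit to a one-site curve. Final conditions: 15 nM His-EBNA1 (aa 459-607), 0.2 nM bt-oPL4624, Tris pH 7.2 buffer with 160 mM NaCl, compound 3.2 nM to 100 μM.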

T1 sequence (P03211 459-607): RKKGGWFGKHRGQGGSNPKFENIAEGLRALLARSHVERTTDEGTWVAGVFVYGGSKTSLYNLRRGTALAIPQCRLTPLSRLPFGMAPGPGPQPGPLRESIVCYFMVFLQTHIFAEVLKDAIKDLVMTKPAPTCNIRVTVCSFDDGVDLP

SMILES	IC50 [µM]
COC(=O)c1cccc(C#Cc2cccc(C(=O)O)c2)c1 [Entry 183, 3-(3-carboxy-phenylethynyl)-benzoic acid methyl ester]	100 to 1000
COc1cc(C#Cc2cccc(C(=O)O)c2)cc(C(N)=O)c1 [Entry 184, 3-(3-carbamoyl-5-methoxy-phenylethynyl)-benzoic acid]	10 to 100
COc1ccc(-c2c(C#Cc3ccncc3)cccc2C(=O)O)cc1O [Entry 185, 3′-hydroxy-4′-methoxy-6-pyridin-4-ylethynyl-biphenyl-2-carboxylic acid]	100 to 1000
COc1cc(O)cc(-c2c(C#Cc3ccncc3)cccc2C(=O)O)c1 [Entry 186, 5′-hydroxy-3′-methoxy-6-pyridin-4-ylethynyl-biphenyl-2-carboxylic acid]	10 to 100
O=C(O)c1cccc(C#Cc2ccncc2)c1-c1cc[nH]n1 [Entry 187, 2-(1H-pyrazol-3-yl)-3-pyridin-4-ylethynyl-benzoic acid]	10 to 100
O=C(O)c1cccc(C#Cc2ccncc2)c1-c1cn[nH]c1 [Entry 188, 2-(1H-pyrazol-4-yl)-3-pyridin-4-ylethynyl-benzoic acid]	100 to 1000
Cc1noc(C)c1-c1c(C#Cc2ccncc2)cccc1C(=O)O [Entry 189, 2-(3,5-dimethyl-isoxazol-4-yl)-3-pyridin-4-ylethynyl-benzoic acid]	10 to 100
Cc1nn(C)c(C)c1-c1c(C#Cc2ccccc2)cccc1C(=O)O [Entry 190, 3-phenylethynyl-2-(1,3,5-trimethyl-1H-pyrazol-4-yl)-benzoic acid]	100 to 1000
Cc1ccc(C)n1-c1c(C#CC(C)(C)O)cccc1C(=O)O [Entry 191, 2-(2,5-dimethyl-pyrrol-1-yl)-3-(3-hydroxy-3-methyl-but-1-ynyl)-benzoic acid]	10 to 100
Cc1ccc(C)n1-c1c(C#Cc2ccncc2)cccc1C(=O)O [Entry 192, 2-(2,5-dimethyl-pyrrol-1-yl)-3-pyridin-4-ylethynyl-benzoic acid]	10 to 100
Cc1ccc(C)n1-c1c(C#Cc2cccc(C(N)=O)c2)cccc1C(=O)O [Entry 193, 3-(3-carbamoyl-phenylethynyl)-2-(2,5-dimethyl-pyrrol-1-yl)-benzoic acid]	1 to 10
Cc1ccc(C)n1-c1c(C#Cc2cccc(C(=O)O)c2)cccc1C(=O)O [Entry 194, 3-(3-carboxy-phenylethynyl)-2-(2,5-dimethyl-pyrrol-1-yl)-benzoic acid]	< 1
Cc1ccc(C)n1-c1c(C#Cc2cccc(CO)c2)cccc1C(=O)O [Entry 195, 2-(2,5-dimethyl-pyrrol-1-yl)-3-(3-hydroxymethyl-phenylethynyl)-benzoic acid]	10 to 100
Cc1ccc(C)n1-c1c(C#Cc2c[nH]c3ncccc23)cccc1C(=O)O [Entry 196, 2-(2,5-dimethyl-pyrrol-1-yl)-3-(1H-pyrrolo[2,3-b]pyridin-3-ylethynyl)-benzoic acid]	1 to 10
Cc1ccc(C)n1-c1c(C#CC(O)c2ccccc2)cccc1C(=O)O (centres unmarked) [Entry 197, 2-(2,5-dimethyl-pyrrol-1-yl)-3-(3-hydroxy-3-phenyl-prop-1-ynyl)-benzoic acid]	10 to 100
CC(=O)Nc1cccc(C#Cc2cccc(C(=O)O)c2-n2c(C)ccc2C)c1 [Entry 198, 3-(3-acetylamino-phenylethynyl)-2-(2,5-dimethyl-pyrrol-1-yl)-benzoic acid]	10 to 100
Cc1ccc(C)n1-c1c(C#CC2CC2)cccc1C(=O)O [Entry 199, 3-cyclopropylethynyl-2-(2,5-dimethyl-pyrrol-1-yl)-benzoic acid]	1 to 10
COc1cccc(C#Cc2cccc(C(=O)O)c2-n2c(C)ccc2C)c1 [Entry 200, 2-(2,5-dimethyl-pyrrol-1-yl)-3-(3-methoxy-phenylethynyl)-benzoic acid]	1 to 10
O=C(O)c1cccc(C#Cc2ccccc2)c1-c1ccc2cn[nH]c2c1 [Entry 201, 2-(1H-indazol-6-yl)-3-phenylethynyl-benzoic acid]	10 to 100
O=C(O)c1cccc(C#Cc2ccccc2)c1-c1ccc2c(c1)OCO2 [Entry 202, 2-benzo[1,3]dioxol-5-yl-3-phenylethynyl-benzoic acid]	10 to 100
O=C(O)c1cccc(C#Cc2ccccc2)c1-c1ccc2cnccc2c1 [Entry 203, 2-isoquinolin-6-yl-3-phenylethynyl-benzoic acid]	10 to 100
O=C(O)c1cccc(C#Cc2ccccc2)c1-c1cc2ccccc2o1 [Entry 204, 2-benzofuran-2-yl-3-phenylethynyl-benzoic acid]	1 to 10
O=C(O)c1cccc(C#Cc2ccccc2)c1-c1cccc2cccnc12 [Entry 205, 3-phenylethynyl-2-quinolin-8-yl-benzoic acid]	10 to 100
Nc1ncc(-c2c(C#Cc3ccccc3)cccc2C(=O)O)cn1 [Entry 206, 2-(2-amino-pyrimidin-5-yl)-3-phenylethynyl-benzoic acid]	100 to 1000

SMILES	IC50 [µM]
CN(C)Cc1ccc(-c2c(C#Cc3ccccc3)cccc2C(=O)O)cc1 [Entry 207, 4′-dimethylaminomethyl-6-phenylethynyl-biphenyl-2-carboxylic acid]	100 to 1000
Nc1ccc(C#Cc2cccc(C(=O)O)c2-c2ccc3cc[nH]c3c2)cc1 [Entry 208, 3-(4-amino-phenylethynyl)-2-(1H-indol-6-yl)-benzoic acid]	1 to 10
O=C(O)c1ccc(C#Cc2cccc(C(=O)O)c2-c2ccc3cc[nH]c3c2)cc1 [Entry 209, 3-(4-carboxy-phenylethynyl)-2-(1H-indol-6-yl)-benzoic acid]	< 1
COc1ccc(C#Cc2cccc(C(=O)O)c2-c2ccc3cc[nH]c3c2)cc1 [Entry 210, 2-(1H-indol-6-yl)-3-(4-methoxy-phenylethynyl)-benzoic acid]	1 to 10
NC(=O)c1ccc(C#Cc2cccc(C(=O)O)c2-c2ccc3cc[nH]c3c2)cc1 [Entry 211, 3-(4-carbamoyl-phenylethynyl)-2-(1H-indol-6-yl)-benzoic acid]	1 to 10
O=C(O)c1cccc(C#Cc2ccc(C(=O)N3CCNCC3)cc2)c1-c1ccc2cc[nH]c2c1 [Entry 212, 2-(1H-indol-6-yl)-3-[4-(piperazine-1-carbonyl)-phenylethynyl]-benzoic acid]	1 to 10
CC(=O)Nc1ccc(C#Cc2cccc(C(=O)O)c2-c2ccc3cc[nH]c3c2)cc1 [Entry 213, 3-(4-acetylamino-phenylethynyl)-2-(1H-indol-6-yl)-benzoic acid]	10 to 100
O=C(Nc1ccc(C#Cc2cccc(C(=O)O)c2-c2ccc3cc[nH]c3c2)cc1)c1cccnc1 [Entry 214, 2-(1H-indol-6-yl)-3-{4-[(pyridine-3-carbonyl)-amino]phenylethynyl}-benzoic acid]	< 1
CS(=O)(=O)Nc1ccc(C#Cc2cccc(C(=O)O)c2-c2ccc3cc[nH]c3c2)cc1 [Entry 215, 2-(1H-indol-6-yl)-3-(4-methanesulfonylamino-phenylethynyl)-benzoic acid]	1 to 10
O=C(O)c1cccc(C#Cc2ccc(NS(=O)(=O)c3cccs3)cc2)c1-c1ccc2cc[nH]c2c1 [Entry 216, 2-(1H-indol-6-yl)-3-[4-(thiophene-2-sulfonylamino)-phenylethynyl]-benzoic acid]	1 to 10
COC(=O)c1c[nH]c2cc(-c3c(C#Cc4cscn4)cccc3C(=O)O)ccc12 [Entry 217, 2-(3-(Methoxycarbonyl)-1H-indol-6-yl)-3-(thiazol-4-ylethynyl)benzoic acid]	1 to 10
O=C(O)c1cccc(C#Cc2cscn2)c1-c1ccc2cc[nH]c2c1 [Entry 218, 2-(1H-indol-6-yl)-3-(thiazol-4-ylethynyl)benzoic acid]	10 to 100
Cn1cc(-c2c(C#Cc3cscn3)cccc2C(=O)O)cn1 [Entry 219, 2-(1-methyl-1H-pyrazol-4-yl)-3-(thiazol-4-ylethynyl)benzoic acid]	10 to 100
Cn1cc(-c2c(C#Cc3cccc(O)c3)cccc2C(=O)O)cn1 [Entry 220, 3-((3-hydroxyphenyl)ethynyl)-2-(1-methyl-1H-pyrazol-4-yl)benzoic acid]	1 to 10
O=C(O)c1cccc(C#Cc2cccc(O)c2)c1-c1ccc2c(Cl)c[nH]c2c1 [Entry 221, 2-(3-chloro-1H-indol-6-yl)-3-((3-hydroxyphenyl)ethynyl)benzoic acid]	1 to 10
O=C(O)c1cccc(C#Cc2cccc(O)c2)c1-c1ccc2cn[nH]c2c1 [Entry 222, 3-((3-hydroxyphenyl)ethynyl)-2-(1H-indazol-6-yl)benzoic acid]	1 to 10
CC(=O)NCCc1c[nH]c2cc(-c3c(C#Cc4cccc(O)c4)cccc3C(=O)O)ccc12 [Entry 223, 2-(3-(2-acetamidoethyl)-1H-indol-6-yl)-3-((3-hydroxyphenyl)ethynyl)benzoic acid]	1 to 10
CN(C)S(=O)(=O)c1cccc(C#Cc2cccc(C(=O)O)c2F)c1 [Entry 224]	10 to 100
O=C(O)c1cccc(C#Cc2ccc(OC3CCOCC3)cc2)c1-c1ccc2cc[nH]c2c1 [Entry 225, 2-(1H-indol-6-yl)-3-((4-(tetrahydro-2H-pyran-4-yloxy)phenyl)ethynyl)benzoic acid]	< 1
O=C(O)c1cccc(C#Cc2ccc(N3CCOCC3)cc2)c1-c1ccc2cc[nH]c2c1 [Entry 226, 2-(1H-indol-6-yl)-3-((4-morpholinophenyl)ethynyl)benzoic acid]	10 to 100
NC(=O)c1cccc(C#Cc2cccc(C(=O)O)c2-c2ccc3cc[nH]c3c2)c1 [Entry 227, 3-((3-carbamoylphenyl)ethynyl)-2-(1H-indol-6-yl)benzoic acid]	10 to 100
O=C(O)c1cccc(C#Cc2ccc(F)cc2)c1-c1ccc2cc[nH]c2c1 [Entry 228, 3-((4-Fluorophenyl)ethynyl)-2-(1H-indol-6-yl)benzoic acid]	1 to 10
O=C(O)c1cccc(C#Cc2ccc(F)cc2F)c1-c1ccc2cc[nH]c2c1 [Entry 229, 3-((2,4-Difluorophenyl)ethynyl)-2-(1H-indol-6-yl)benzoic acid]	1 to 10
